The test system of test [1] is HCV replicon I389luc-ubi-neo/NS3-3′/ET in ET (Huh-lucubineo-ET) cells. Nature of the test: Replicon assay (Biological Example 2), luciferase readout. The test is classed as cell-based. The following applies: Hepatitis C virus. The method in brief:
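EC50 values come from Hill fits of % inhibition of replicon-driven firefly luciferase, relative to no-compound wells. Compounds were serially diluted (10 points, 3-fold, 0.1 nM–50 μM final, 0.5% DMSO) onto ET replicon cells and read after 48 h.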
A general note: In antiviral work, replicon cells carry a viral genome segment that copies itself.

For the next test, the target named is T1, HCV polymerase (Hepatitis C virus genotype 1b, UniProt Q9WMX2).
T1 construct: (His)6 (C); made in house; host or cells: XL-1 cells (E. coli, by own knowledge)
In words: Polymerase assay of Biological Example 1 (IC50 values of Table 3). The test is classed as biochemical. The settings on record: IC50 values of Table 3, polymerase assay of Biological Example 1; read-out: NS5B-enzyme3.

The mark [2] stands for this setting: ET cells, luciferase activity 48 hours after compound.

The record followed here is patent US9498483B2, “2,3,5-trisubstituted thiophene compounds and uses thereof” (priority 2010, dated 2016).

Bounds are passed on as bounds.

For `CCc1ccc(S(=O)(=O)N2CC(=O)N(c3cc(-c4ccc(C)cc4)sc3C(=O)O)[C@H](C3CCCCC3)C2)cn1` [Compound 304, 3-[(R)-2-Cyclohexyl-4-(6-ethyl-pyridine-3-sulfonyl)-6-oxo-piperazin-1-yl]-5-p-tolyl-thiophene-2-carboxylic acid], the IC50 in test [1] (setting [2]) was not above 100 nM; at HCV polymerase, 5 nM.

Turning to `NCC1CCN(c2ccc(S(=O)(=O)N3CC(=O)N(c4cc(-c5ccccc5)sc4C(=O)O)[C@H](C4CCCCC4)C3)cn2)CC1` [Compound 143, 3-[(R)-4-(4-Aminomethyl-3,4,5,6-tetrahydro-2H-[1,2′]bipyridinyl-5′-sulfonyl)-2-cyclohexyl-6-oxo-piperazin-1-yl]-5-phenyl-thiophene-2-carboxylic acid], the IC50 in test [1] (setting [2]) is not above 100 nM; at HCV polymerase it was 1.9 nM.

`CC(C)(C)C#Cc1cc(N2C(=O)C(CCCO)OC[C@H]2C2CCCCC2)c(C(=O)O)s1` (stereo partly drawn) [Compound 299, 3-[(R)-5-Cyclohexyl-2-(3-hydroxy-propyl)-3-oxo-morpholin-4-yl]-5-(3,3-dimethyl-but-1-ynyl)-thiophene-2-carboxylic acid]: the IC50 in test [1] (setting [2]) is not above 100 nM; on HCV polymerase, 5 nM.

Take `CN1CCN(c2ccc(S(=O)(=O)N3CC(=O)N(c4cc(-c5ccccc5)sc4C(=O)O)[C@H](C4CCCCC4)C3)cn2)CC1` [Compound 137, 3-{(R)-2-Cyclohexyl-4-[6-(4-methyl-piperazin-1-yl)-pyridine-3-sulfonyl]-6-oxo-piperazin-1-yl}-5-phenyl-thiophene-2-carboxylic acid]: the IC50 in test [1] (setting [2]) was not above 100 nM; on HCV polymerase, 1.5 nM.

On to `CC(C)(C)C#Cc1cc(N2C(=O)C(CCCO)CC[C@H]2C2CCCCC2)c(C(=O)O)s1` (stereo partly drawn) [Compound 339, 3-[(S)-6-Cyclohexyl-3-(3-hydroxy-propyl)-2-oxo-piperidin-1-yl]-5-(3,3-dimethyl-but-1-ynyl)-thiophene-2-carboxylic acid], for which the IC50 in test [1] (setting [2]) was not above 100 nM; at HCV polymerase it was 8 nM.

On to `CC(C)(C)C#Cc1cc(N2C(=O)[C@](C)(CCO)OC[C@H]2C2CCCCC2)c(C(=O)O)s1` [Compound 328, 3-[(2S,5R)-5-Cyclohexyl-2-(2-hydroxy-ethyl)-2-methyl-3-oxo-morpholin-4-yl]-5-(3,3-dimethyl-but-1-ynyl)-thiophene-2-carboxylic acid], for which the IC50 in test [1] (setting [2]) is not above 100 nM; on HCV polymerase, 6 nM.

As to `O=C(O)c1sc(-c2ccccc2)cc1N1C(=O)CN(S(=O)(=O)c2ccc(N3CCCC3)nc2)C[C@@H]1C1CCCCC1` [Compound 136, 3-[(S)-2-Cyclohexyl-6-oxo-4-(6-pyrrolidin-1-yl-pyridine-3-sulfonyl)-piperazin-1-yl]-5-phenyl-thiophene-2-carboxylic acid], the IC50 in test [1] (between 100 nM and 5.0 uM) was 100 to 5000 nM; on HCV polymerase, 260 nM.

Take `Cn1ccc(S(=O)(=O)N2CC(=O)N(c3cc(-c4ccccc4)sc3C(=O)O)C(C3CCCCC3)C2)n1` (centres unmarked) [Compound 62, 3-[2-Cyclohexyl-4-(1-methyl-1H-pyrazole-3-sulfonyl)-6-oxo-piperazin-1-yl]-5-phenyl-thiophene-2-carboxylic acid]: the IC50 in test [1] (between 100 nM and 5.0 uM) is 100 to 5000 nM; at HCV polymerase, 11 nM.

As for `O=C(O)c1sc(-c2ccccc2)cc1N1C(=O)CN(S(=O)(=O)c2ccc(N3CCCC3)nc2)CC1C1CCCCC1` (centres unmarked) [Compound 76, 3-[2-Cyclohexyl-6-oxo-4-(6-pyrrolidin-1-yl-pyridine-3-sulfonyl)-piperazin-1-yl]-5-phenyl-thiophene-2-carboxylic acid], the IC50 was not above 100 nM in test [1] (setting [2]) and 4 nM at HCV polymerase.

Take `C[C@@H](O)C[C@H]1OC[C@@H](C2CCCCC2)N(c2cc(C#CC(C)(C)C)sc2C(=O)O)C1=O` [Compound 336, 3-[(2R,5R)-5-Cyclohexyl-2-((R)-2-hydroxy-propyl)-3-oxo-morpholin-4-yl]-5-(3,3-dimethyl-but-1-ynyl)-thiophene-2-carboxylic acid]: the IC50 is not above 100 nM in test [1] (setting [2]) and 3 nM at HCV polymerase.

Consider `O=C(N[C@H]1CC(=O)N(c2cc(-c3ccccc3)sc2C(=O)O)[C@@H](C2CCCCC2)C1)c1ccccc1` [Compound 25, 3-((2R,4R)-4-Benzoylamino-2-cyclohexyl-6-oxo-piperidin-1-yl)-5-phenyl-thiophene-2-carboxylic acid], for which the IC50 in test [1] (setting [2]) was not below 5000 nM; at HCV polymerase, 173 nM.

In the case of `CC(C)(C)C#Cc1cc(N2C(=O)C(CC(=O)N3CCOCC3)OC[C@H]2C2CCCCC2)c(C(=O)O)s1` (stereo partly drawn) [Compound 294, 3-[(R)-5-Cyclohexyl-2-(2-morpholin-4-yl-2-oxo-ethyl)-3-oxo-morpholin-4-yl]-5-(3,3-dimethyl-but-1-ynyl)-thiophene-2-carboxylic acid], the IC50 was 100 to 5000 nM in test [1] (between 100 nM and 5.0 uM); 7 nM at HCV polymerase.

With `O=C(O)c1sc(-c2ccccc2)cc1N1C(=O)CN(S(=O)(=O)c2ccc(N3CC[C@@H](O)C3)nc2)CC1C1CCCCC1` (stereo partly drawn) [Compound 123, 3-{2-Cyclohexyl-4-[6-((R)-3-hydroxy-pyrrolidin-1-yl)-pyridine-3-sulfonyl]-6-oxo-piperazin-1-yl}-5-phenyl-thiophene-2-carboxylic acid], the IC50 was not above 100 nM in test [1] (setting [2]) and 2 nM at HCV polymerase.

Take `CC(C)c1ccc(S(=O)(=O)N2CC(=O)N(c3cc(-c4ccccc4)sc3C(=O)O)C(C3CCCCC3)C2)cc1` (centres unmarked) [Compound 100, 3-[2-Cyclohexyl-4-(4-isopropyl-benzenesulfonyl)-6-oxo-piperazin-1-yl]-5-phenyl-thiophene-2-carboxylic acid]: the IC50 in test [1] (between 100 nM and 5.0 uM) was 100 to 5000 nM; on HCV polymerase, 4 nM.

As for `O=C(O)c1sc(-c2ccccc2)cc1N1C(=O)CN(S(=O)(=O)c2ccc(-n3cccn3)cc2)CC1C1CCCCC1` (centres unmarked) [Compound 101, 3-[2-Cyclohexyl-6-oxo-4-(4-pyrazol-1-yl-benzenesulfonyl)-piperazin-1-yl]-5-phenyl-thiophene-2-carboxylic acid], the IC50 in test [1] (between 100 nM and 5.0 uM) was 100 to 5000 nM; on HCV polymerase, 11 nM.

With `CNC(=O)c1ccc(S(=O)(=O)N2CC(=O)N(c3cc(-c4ccccc4)sc3C(=O)O)C(C3CCCCC3)C2)cc1` (centres unmarked) [Compound 98, 3-[2-Cyclohexyl-4-(4-methylcarbamoyl-benzenesulfonyl)-6-oxo-piperazin-1-yl]-5-phenyl-thiophene-2-carboxylic acid], the IC50 was 100 to 5000 nM in test [1] (between 100 nM and 5.0 uM); 3 nM on HCV polymerase.

Regarding `CC1CCC(C)N1c1ccc(S(=O)(=O)N2CC(=O)N(c3cc(-c4ccccc4)sc3C(=O)O)C(C3CCCCC3)C2)cn1` (centres unmarked) [Compound 92, 3-{2-Cyclohexyl-4-[6-(2,5-dimethyl-pyrrolidin-1-yl)-pyridine-3-sulfonyl]-6-oxo-piperazin-1-yl}-5-phenyl-thiophene-2-carboxylic acid], the IC50 in test [1] (setting [2]) was not above 100 nM; on HCV polymerase, 4 nM.

Regarding `Cn1ccc2cc(S(=O)(=O)N3CC(=O)N(c4cc(-c5ccccc5)sc4C(=O)O)C(C4CCCCC4)C3)ccc21` (centres unmarked) [Compound 61, 3-[2-Cyclohexyl-4-(1-methyl-1H-indole-5-sulfonyl)-6-oxo-piperazin-1-yl]-5-phenyl-thiophene-2-carboxylic acid], the IC50 in test [1] (between 100 nM and 5.0 uM) was 100 to 5000 nM; on HCV polymerase it was 3 nM.

In the case of `Cc1oc(C)c(S(=O)(=O)N2CC(=O)N(c3cc(-c4ccccc4)sc3C(=O)O)C(C3CCCCC3)C2)c1C(=O)O` (centres unmarked) [Compound 33, 4-[4-(2-Carboxy-5-phenyl-thiophen-3-yl)-3-cyclohexyl-5-oxo-piperazine-1-sulfonyl]-2,5-dimethyl-furan-3-carboxylic acid], the values for the IC50 (in test [1] (setting [2]); at HCV polymerase) were not below 5000 nM and 38 nM, respectively.

As for `Cn1ccc2cccc(S(=O)(=O)N3CC(=O)N(c4cc(-c5ccccc5)sc4C(=O)O)C(C4CCCCC4)C3)c21` (centres unmarked) [Compound 57, 3-[2-Cyclohexyl-4-(1-methyl-1H-indole-7-sulfonyl)-6-oxo-piperazin-1-yl]-5-phenyl-thiophene-2-carboxylic acid], the IC50 in test [1] (setting [2]) is not below 5000 nM; at HCV polymerase, 260 nM.

With `C[C@H]1[C@@H](C2CCCCC2)N(c2cc(C#CC(C)(C)C)sc2C(=O)O)C(=O)N1C` [Compound 237, 3-((4S,5R)-5-Cyclohexyl-3,4-dimethyl-2-oxo-imidazolidin-1-yl)-5-(3,3-dimethyl-but-1-ynyl)-thiophene-2-carboxylic acid], the IC50 was 100 to 5000 nM in test [1] (between 100 nM and 5.0 uM); 42 nM at HCV polymerase.

As to `CC1C(=O)N(c2cc(-c3ccccc3)sc2C(=O)O)C(C2CCCCC2)CN1S(=O)(=O)c1ccc(N2CCOCC2)nc1` (centres unmarked) [Compound 128, 3-[6-Cyclohexyl-3-methyl-4-(6-morpholin-4-yl-pyridine-3-sulfonyl)-2-oxo-piperazin-1-yl]-5-phenyl-thiophene-2-carboxylic acid], the IC50 was 100 to 5000 nM in test [1] (between 100 nM and 5.0 uM); 9 nM at HCV polymerase.

As to `CC(C)(C)C#Cc1cc(N2C(=O)[C@H](CCCO)OC[C@H]2C2CCCCC2)c(C(=O)O)s1` (single isomer, unassigned) [Compound 2], the values for the IC50 (in test [1] (setting [2]); on HCV polymerase) were not above 100 nM and 35 nM, respectively.

As to `COc1cc(F)c(S(=O)(=O)N2CC(=O)N(c3cc(C#CC(C)(C)C)sc3C(=O)O)[C@H](C3CCCCC3)C2)cc1OC` [Compound 276, 3-[(R)-2-Cyclohexyl-4-(2-fluoro-4,5-dimethoxy-benzenesulfonyl)-6-oxo-piperazin-1-yl]-5-(3,3-dimethyl-but-1-ynyl)-thiophene-2-carboxylic acid], the IC50 is not above 100 nM in test [1] (setting [2]) and 2 nM at HCV polymerase.

Regarding `COc1cc(S(=O)(=O)N2CC(=O)N(c3cc(C#CC(C)(C)C)sc3C(=O)O)[C@H](C3CCCCC3)C2)ccc1F` [Compound 283, 3-[(R)-2-Cyclohexyl-4-(4-fluoro-3-methoxy-benzenesulfonyl)-6-oxo-piperazin-1-yl]-5-(3,3-dimethyl-but-1-ynyl)-thiophene-2-carboxylic acid], the values for the IC50 (in test [1] (setting [2]); at HCV polymerase) were not above 100 nM and 4 nM, respectively.
